In patent publication US10390536B2, “Methods, compounds and compositions for repelling insects and/or arachnids” (National Center for Scientific Research “Demokritos”, priority 2013, dated 2019):

Legend:
A. gambiae females = experiment: wind tunnel spatial repellence (landings on treated netting downwind of dirty sock); assay type: in vivo, Anopheles gambiae; conditions: for inhibition of landing on treated netting (in words): 38 or 57 μg DEET/cm^2, 38 or 76 μg carvacrol/cm^2; for Mean Landings/5 minutes: control 24.6
Protocol: Carvacrol was tested in a wind tunnel (60×60×120 cm) in order to test for inhibition of the attractiveness of dirty socks, which are otherwise very attractive to the malaria mosquito A. gambiae. Experiments were conducted at 25° C. and 80% relative humidity at a wind speed of 0.5 m·s^−1 during the last 6 hours of scotophase. Dim fluorescent light (4 Lux) was provided from above (Philips TLD, 32 Watts at 36 KHz). A tube (55 mm inner diameter) was covered at its downwind end with mosquito netting which was treated with 38 or 57 μg DEET/cm^2 or 38 or 76 μg carvacrol/cm^2 or the solvent (ethanol) alone (control). Groups of 30 A. gambiae females were released from a release cage at the downwind end of the wind tunnel and their landing behaviour on the mosquito netting was recorded with a high definition video camera. The number of mosquitoes landing on the mosquito netting over 5 minutes was counted.

[1] = tested on: sand fly Lutzomyia longipalpis; experiment: warm body repellence assay with sand flies; assay type: in vivo; conditions: for Median of landings: 2 minutes, control 48
Protocol: To test the effects of repellent compounds or compositions disclosed herein on other blood-feeding arthropods, a warm body repellence assay (Krober et. al. (2010). An In Vitro Assay for Testing Mosquito Repellents Employing a Warm Body and Carbon Dioxide as a Behavioral Activator. Journal of the American Mosquito Control Association 26(4): 381-386] was conducted using the sand fly Lutzomyia longipalpis (Diptera: Psychodidae), the principal vector of Leishmania (or leismaniasis) in the Americas.
[…] Fifty L. longipalpis sandflies (male:female ratio 1:1) of 3-7 days old were tested during the scotophase under conditions described for A. gambiae in Example 6. The test cages were lined with filter paper. Reduction in the number of landings by L. longipalpis sand fly females on a warm body treated with different test products compared to the control with solvent (ethanol p.a.) alone was used to evaluate repellence. Tests were conducted in complete darkness using IR LEDs to illuminate the warm body. Landings counted during 2 minutes were normalized by experimental day, cage, and number of females by a mixed linear model before testing for differences.

[2] = tested on: female A. gambiae antennae; experiment: GC-coupled electroantennogram (GC-EAG) recording; design: species or system Anopheles gambiae; conditions: compounds eluting from GC of essential oils
Description: Electrophysiological recordings from whole mosquito antenna: Coupling EAG recordings from an A. gambiae antenna to the effluent of a high-resolution gas chromatographic (GC) column permitted the determination of the elution profiles of biologically active components of essential oils showing repellence. Recordings were made from to 4-9 day-old female mosquitoes. The head was excised at the occipital opening and placed on the reference glass electrode containing Hayes mosquito Ringer [Hayes (1953). Determination of a physiological saline for Aedes aegypti (L.). J Econ Entomol 46: 624-627] mounted in a humidified air-stream (90-98% RH; Guerin and Visser (1980). Electroantennogram Responses of the Carrot Fly, Psila rosae, to Volatile Plant Components. Physiological Entomology 5(2): 111-119] and its antenna exposed to compounds eluting from the GC column (Biessamann et al. (2010). The Anopheles gambiae odorant binding protein 1 (AgamOBP1) mediates indole recognition in the antennae of female mosquitoes. PLoS One 5(3): e9471]. The EAG response was recorded via a glass electrode filled with Kaissling sensillum lymph Ringer [Kaissling (1995). Single unit and electroantennogram recordings in insect olfactory organs. In Experimental Cell Biology of Taste and Olfaction. Current Techniques and Protocols, Spielman AlaB, J. G. (ed), 361-386. Boca Raton, Fla.: CRC Press] brought into contact with the terminal antennal segment whose tip was cut off. Only antennae showing an EAG response at least double the noise level to a 1 ml puff of air over 1 μg geranylacetone in a 5 ml stimulus syringe were used for recording EAG responses to the essential oils.
To conduct a GC-EAG analysis, about 2 μg of an essential oil was injected in 1-3 μL of dichloromethane (DCM) onto an apolar capillary column (95% dimethyl polysiloxan with 5% diphenyl polysiloxan, 15 m long, 0.25 mm i.d., 0.10 μm film thickness; BGB Analytik, Switzerland) installed in a 5300 Carlo Erba Instruments chromatograph. Hydrogen was used as carrier gas with the oven held at 40° C. for 3 minutes then heated up 25° C./min to 230° C. and held at the final temperature for 15 min. The column effluent was split (50:50) between the flame ionization detector (FID) of the chromatograph and the mosquito antennal preparation. The EAG signal was fed into an AC/DC amplifier (×100) via a high impedance preamplifier (×10), recorded on the hard disk of a PC via a 16-bit analogue-digital IDAC4 interface (Syntech, Netherlands) and monitored simultaneously with an oscilloscope (Tektronix 5103, USA). Kovats retention indices (KIs) were calculated for the EAG-active compounds present in the extracts and fractions. FIG. 1 illustrates the results obtained using the GC-EAG analysis. […]

[3] = tested on: Ixodes ricinus (Ixodidae) nymphs; experiment: tick repellence assay on warm glass plate; assay type: in vivo; conditions: 10 μg/cm^2; nymphs dropped off or walked down the warm glass plate; control 8
Protocol: The products were tested at a dose of 10 μg/cm^2 on Ixodes ricinus (Ixodidae) nymphs according the protocol described in Krober, T. et al. (2013). A standardised in vivo and in vitro test method for evaluating tick repellents. Pesticide Biochemistry and Physiology 107: 160-168] with the following modifications: The test products (dissolved in ethanol) were allowed to evaporate for 40 s (as in the warm body test with mosquitoes) and the warm glass plates were used up to 250 s after application of the test products for the repellence assay. Four repetitions were made with carvacrol with 3, 4, 4 and 5 nymphs, i.e. with a total of 16 I. ricinus nymphs, of which in total 75% (12) were affected in that they either dropped off or walked down the warm glass plate.
The mixture of carvacrol+cumin alcohol+butyl-cinnamate was tested in two repetitions with 6 and 7 nymphs, i.e. with a total of 13 I. ricinus nymphs, of which 100% were affected in that they either dropped off or walked down the warm glass plate. Of 12 Ixodes ricinus tested in the control (ethanol only) only one tick (8%) was affected (Table 8).

[4] = netting treated with 38 μg/cm^2

SMILES | inhibition of landing on treated netting (in words) (A. gambiae females) | Mean Landings/5 minutes (A. gambiae females; [4]) | Mean Landings/5 minutes (A. gambiae females; netting treated with 57 μg/cm^2 (300 nmol/cm^2)) | Median of landings ([1]; 20 nmol/cm^2) | Median of landings ([1]; 200 nmol/cm^2) | Mean Landings/5 minutes (A. gambiae females; netting treated with 76 μg/cm^2 (500 nmol/cm^2)) | EAG response of antenna [2] | % affected ticks [3] | repellence of sand flies from the warm body (in words) ([1]; 20 and 200 nmol/cm^2)
CCN(CC)C(=O)c1cccc(C)c1 [DEET, N,N-diethyl-3-methylbenzamide, reference compound] | clearly inhibited | 0 Landings/5 minutes | 0 Landings/5 minutes | 6 | 5 | – | – | – | –
Cc1ccc(C(C)C)cc1O [carvacrol, 5-isopropyl-2-methylphenol] | clearly inhibited | 0 Landings/5 minutes | – | 23 | 1 | 0 Landings/5 minutes | capable of triggering EAG responses | 75% | as effective as DEET at 20 nmol/cm^2
CC(C)c1ccc(CO)cc1 [cumin alcohol] | – | – | – | – | – | – | capable of triggering EAG responses | – | –
